In patent US9862713B2, “Substituted bicyclic heteroaryl compounds as RXR agonists” (CONNEXIOS LIFE SCIENCES PVT. LTD., priority 2014, dated 2018):

System: hRXR α, β, or γ
Test: Transactivation assay (RARE-Luc dual luciferase reporter in HEK-293 cells), activity relative to LG268
Format: cell-based, human
Conditions: compound at 300 nM, 24 h; luciferase activity expressed relative to LG268
Procedure: HEK-293 cells (ATCC) were seeded one day prior to transfection. For assessing EC50 of activation of RXR isoforms 2 μg of hRXR α, β, or γ (OriGENE, USA) over-expressing vector, 1 μg of plasmid expressing firefly luciferase under RARE element (RARE-Luc) and 25 ng of renilla luciferase vector (QIAGEN, USA) were co-transfected using lipofectamine reagent. Post 24 h of transfection, cells were treated with different concentrations of RXR agonists (100 nM, 300 nM and 1 uM) for 24 h followed by estimation of luciferase activity using Dual Luciferase Reporter Assay System (Promega). Luciferase activity was normalized to that of renilla luciferase. The activities of the RXR compounds were expressed relative to LG268, a known RXR agonist.

**Q.** Which “Activity at 300 nM” value does the source give for `CCCN(c1ccc(C(=O)O)cn1)c1nc2c(s1)C(C)(C)CCC2(C)C` [Compound 65, 6-[propyl(4,4,7,7-tetramethyl-4,5,6,7-tetrahydro-1,3-benzothiazol-2-yl)amino]pyridine-3-carboxylic acid] here?
**A.** ***** (>0.6)

**Q.** `CC1(C)CCC(C)(C)c2sc(N(Cc3ccccc3)c3ccc(C(=O)O)cn3)nc21` [Compound 66, 6-[benzyl(4,4,7,7-tetramethyl-4,5,6,7-tetrahydro-1,3-benzothiazol-2-yl)amino]pyridine-3-carboxylic acid] was tested. Which “Activity at 300 nM” value did it give?
**A.** ***** (>0.6)

**Q.** With `CC(C)CN(c1ccc(C(=O)O)nc1)c1nc2c(s1)C(C)(C)CCC2(C)C` [Compound 67, 5-[(2-methylpropyl) (4,4,7,7-tetramethyl-4,5,6,7-tetrahydro-1,3-benzothiazol-2-yl)amino]pyridine-2-carboxylic acid] as the molecule, how does the “Activity at 300 nM” value read?
**A.** * (<0.3)

**Q.** For `CC1(C)CCC(C)(C)c2sc(N(CC3CC3)c3ncc(C(=O)O)cc3Cl)nc21` [Compound 68], which “Activity at 300 nM” value is on record?
**A.** * (<0.3)

**Q.** For `CC(C)CN(c1nc2c(s1)C(C)(C)CCC2(C)C)c1ncc(C(=O)O)cc1Cl` [Compound 69, 5-chloro-6-[(2-methylpropyl) (4,4,7,7-tetramethyl-4,5,6,7-tetrahydro-1,3-benzothiazol-2-yl)amino]pyridine-3-carboxylic acid], which “Activity at 300 nM” value is on record?
**A.** * (<0.3)

**Q.** Which “Activity at 300 nM” value does the source give for `CC1(C)CCC(C)(C)c2sc(N(CC3CC3)c3cc(Cl)c(C(=O)O)cn3)nc21` [Compound 70, 4-chloro-6-[(cyclopropylmethyl) (4,4,7,7-tetramethyl-4,5,6,7-tetrahydro-1,3-benzothiazol-2-yl)amino]pyridine-3-carboxylic acid] here?
**A.** ***** (>0.6)

**Q.** How did the “Activity at 300 nM” value turn out when `COc1cc(C(=O)O)ccc1N(CC1CC1)c1nc2c(s1)C(C)(C)CCC2(C)C` [Compound 71, 4-[(cyclopropylmethyl) (4,4,7,7-tetramethyl-4,5,6,7-tetrahydro-1,3-benzothiazol-2-yl)amino]-3-methoxybenzoic acid] was run?
**A.** * (<0.3)

**Q.** How did the “Activity at 300 nM” value turn out when `COc1cc(N(CC2CC2)c2nc3c(s2)C(C)(C)CCC3(C)C)ccc1C(=O)O` [Compound 72] was run?
**A.** * (<0.3)

**Q.** Which “Activity at 300 nM” value does the source give for `COc1cc(N(CC(C)C)c2nc3c(s2)C(C)(C)CCC3(C)C)ccc1C(=O)O` [Compound 73, 2-methoxy-4-[(2-methylpropyl) (4,4,7,7-tetramethyl-4,5,6,7-tetrahydro-1,3-benzothiazol-2-yl)amino]benzoic acid] here?
**A.** ** (>0.3 and <0.4)

**Q.** How did the “Activity at 300 nM” value turn out when `Cc1c(N(CC(C)C)c2ccc(C(=O)O)c(N)c2)sc2c1C(C)(C)CCC2(C)C` [Compound 79, 2-amino-4-[(2-methylpropyl) (3,4,4,7,7-pentamethyl-4,5,6,7-tetrahydro-1-benzothiophen-2-yl)amino]benzoic acid] was run?
**A.** ***** (>0.6)

**Q.** For `CCCS(=O)(=O)Nc1cc(N(CC(C)C)c2sc3c(c2C)C(C)(C)CCC3(C)C)ccc1C(=O)O` [Compound 80, 4-[(2-methylpropyl) (3,4,4,7,7-pentamethyl-4,5,6,7-tetrahydro-1-benzothiophen-2-yl)amino]-2-[(propylsulfonyl)amino]benzoic acid], which “Activity at 300 nM” value is on record?
**A.** *** (>0.4 and <0.5)

**Q.** With `CCCN(c1ccc(C(=O)O)cn1)c1nc2c(s1)C(C)(C)C=CC2(C)C` [Compound 81, 6-[propyl(4,4,7,7-tetramethyl-4,7-dihydro-1,3-benzothiazol-2-yl)amino]pyridine-3-carboxylic acid] as the molecule, how does the “Activity at 300 nM” value read?
**A.** ***** (>0.6)

**Q.** For `CC(C)CN(c1ccc(C(=O)O)cn1)c1nc2c(s1)C(C)(C)C=CC2(C)C` [Compound 82, 6-[(2-methylpropyl) (4,4,7,7-tetramethyl-4,7-dihydro-1,3-benzothiazol-2-yl)amino]pyridine-3-carboxylic acid], which “Activity at 300 nM” value is on record?
**A.** ***** (>0.6)

**Q.** With `CC(C)CN(c1ccc(C(=O)O)cc1)c1nc2c(s1)C(C)(C)C=CC2(C)C` [Compound 83, 4-[(2-methylpropyl) (4,4,7,7-tetramethyl-4,7-dihydro-1,3-benzothiazol-2-yl)amino]benzoic acid] as the molecule, how does the “Activity at 300 nM” value read?
**A.** * (<0.3)

**Q.** Which “Activity at 300 nM” value does the source give for `CC1(C)CCC(C)(C)c2sc(N(C(=O)C3CCC3)c3ccc(C(=O)O)cn3)nc21` [Compound 84, 6-[(cyclobutylcarbonyl) (4,4,7,7-tetramethyl-4,5,6,7-tetrahydro-1,3-benzothiazol-2-yl)amino]pyridine-3-carboxylic acid] here?
**A.** ** (>0.3 and <0.4)

**Q.** For `CC(=O)N(c1ccc(C(=O)O)cn1)c1nc2c(s1)C(C)(C)CCC2(C)C` [Compound 85, 6-[acetyl(4,4,7,7-tetramethyl-4,5,6,7-tetrahydro-1,3-benzothiazol-2-yl)amino]pyridine-3-carboxylic acid], which “Activity at 300 nM” value is on record?
**A.** ** (>0.3 and <0.4)

**Q.** How did the “Activity at 300 nM” value turn out when `CC1(C)CC(O)C(C)(C)c2nc(N(CC3CC3)c3ccc(C(=O)O)cn3)sc21` (stereo not shown) [Compound 86, 6-[(cyclopropylmethyl) (5-hydroxy-4,4,7,7-tetramethyl-4,5,6,7-tetrahydro-1,3-benzothiazol-2-yl)amino]pyridine-3-carboxylic acid] was run?
**A.** ***** (>0.6)

**Q.** Which “Activity at 300 nM” value does the source give for `COC1CC(C)(C)c2sc(N(CC3CC3)c3ccc(C(=O)O)cn3)nc2C1(C)C` (stereo not shown) [Compound 87, 6-[(cyclopropylmethyl) (5-methoxy-4,4,7,7-tetramethyl-4,5,6,7-tetrahydro-1,3-benzothiazol-2-yl)amino]pyridine-3-carboxylic acid] here?
**A.** ***** (>0.6)

**Q.** With `CC(C)CN(c1ccc(C(=O)O)cc1)c1nc2c(s1)C(C)(C)CC(C)(O)C2(C)C` (stereo not shown) [Compound 88, 4-[(5-hydroxy-4,4,5,7,7-pentamethyl-4,5,6,7-tetrahydro-1,3-benzothiazol-2-yl) (2-methylpropyl)amino]benzoic acid] as the molecule, how does the “Activity at 300 nM” value read?
**A.** ** (>0.3 and <0.4)

**Q.** Which “Activity at 300 nM” value does the source give for `CC(C)CN(c1ccc(C(=O)O)cc1)c1nc2c(s1)C(C)(C)C/C(=N/O)C2(C)C` [Compound 89, 4-{[(5Z)-5-(hydroxyimino)-4,4,7,7-tetramethyl-4,5,6,7-tetrahydro-1,3-benzothiazol-2-yl](2-methylpropyl)amino}benzoic acid] here?
**A.** ** (>0.3 and <0.4)

**Q.** With `CC(C)CN(c1ccc(C(=O)O)cc1)c1nc2c(s1)C(C)(C)CC(NCc1ccccc1)C2(C)C` (stereo not shown) [Compound 90, 4-{[5-(benzylamino)-4,4,7,7-tetramethyl-4,5,6,7-tetrahydro-1,3-benzothiazol-2-yl](2-methylpropyl)amino}benzoic acid] as the molecule, how does the “Activity at 300 nM” value read?
**A.** ** (>0.3 and <0.4)

**Q.** Which “Activity at 300 nM” value does the source give for `Cc1c(N(CC(C)C)c2ccc(C(=O)O)c(O)c2)sc2c1C(C)(C)CCC2(C)C` [Compound 91, 2-hydroxy-4-[(2-methylpropyl) (3,4,4,7,7-pentamethyl-4,5,6,7-tetrahydro-1-benzothiophen-2-yl)amino]benzoic acid] here?
**A.** ***** (>0.6)

**Q.** For `CC1(C)CCC(C)(C)c2sc(Nc3ccc(C(=O)O)cc3O)nc21` [Compound 92, 3-hydroxy-4-[(4,4,7,7-tetramethyl-4,5,6,7-tetrahydro-1,3-benzothiazol-2-yl)amino]benzoic acid], which “Activity at 300 nM” value is on record?
**A.** * (<0.3)

**Q.** How did the “Activity at 300 nM” value turn out when `CC1(C)CCC(C)(C)c2sc(C(=O)c3ccc(C(=O)O)nc3)nc21` [Compound 93, 5-[(4,4,7,7-tetramethyl-4,5,6,7-tetrahydro-1,3-benzothiazol-2-yl)carbonyl]pyridine-2-carboxylic acid] was run?
**A.** * (<0.3)

**Q.** How did the “Activity at 300 nM” value turn out when `C=C(c1ccc(C(=O)O)nc1)c1nc2c(s1)C(C)(C)CCC2(C)C` [Compound 94, 5-[1-(4,4,7,7-tetramethyl-4,5,6,7-tetrahydro-1,3-benzothiazol-2-yl)ethenyl]pyridine-2-carboxylic acid] was run?
**A.** ** (>0.3 and <0.4)

**Q.** `CC1(C)CCC(C)(C)c2sc(C(=O)c3ccc(C(=O)O)cn3)nc21` [Compound 95, 6-[(4,4,7,7-tetramethyl-4,5,6,7-tetrahydro-1,3-benzothiazol-2-yl)carbonyl]pyridine-3-carboxylic acid] was tested. Which “Activity at 300 nM” value did it give?
**A.** ** (>0.3 and <0.4)

**Q.** For `CC1(C)CCC(C)(C)c2sc(C(C)(O)c3ccc(C(=O)O)cn3)nc21` (stereo not shown) [Compound 96, 6-[1-hydroxy-1-(4,4,7,7-tetramethyl-4,5,6,7-tetrahydro-1,3-benzothiazol-2-yl)ethyl]pyridine-3-carboxylic acid], which “Activity at 300 nM” value is on record?
**A.** ** (>0.3 and <0.4)

**Q.** Which “Activity at 300 nM” value does the source give for `C=C(c1ccc(C(=O)O)cc1)c1nc2c(s1)C(C)(C)CCC2(C)C` [Compound 97, 4-[1-(4,4,7,7-tetramethyl-4,5,6,7-tetrahydro-1,3-benzothiazol-2-yl)ethenyl]benzoic acid] here?
**A.** ** (>0.3 and <0.4)

**Q.** Which “Activity at 300 nM” value does the source give for `CC1(C)CCC(C)(C)c2sc(C3(c4ccc(C(=O)O)cc4)CC3)nc21` [Compound 98, 4-[1-(4,4,7,7-tetramethyl-4,5,6,7-tetrahydro-1,3-benzothiazol-2-yl)cyclopropyl]benzoic acid] here?
**A.** **** (>0.5 to <0.6)

**Q.** How did the “Activity at 300 nM” value turn out when `CC1(C)CCC(C)(C)c2sc(N(c3ccc(C(=O)O)cn3)C3CCC3)nc21` [Compound 99, 6-[cyclobutyl(4,4,7,7-tetramethyl-4,5,6,7-tetrahydro-1,3-benzothiazol-2-yl)amino]pyridine-3-carboxylic acid] was run?
**A.** ***** (>0.6)

**Q.** With `CC1(C)CCC(C)(C)c2sc(N(c3ccccc3)c3ccc(C(=O)O)cc3)nc21` [Compound 100, 4-[phenyl(4,4,7,7-tetramethyl-4,5,6,7-tetrahydro-1,3-benzothiazol-2-yl)amino]benzoic acid] as the molecule, how does the “Activity at 300 nM” value read?
**A.** ***** (>0.6)
